Patent US20260185992A1, “METHODS FOR SELECTING AND TREATING PATIENTS WITH RETINAL DISEASE BASED ON COMPLEMENT PATHWAY HYPERACTIVITY” (Oak Bay Biosciences Inc., priority 2024, published 2026)
Like-named read-outs stand apart in the source and are kept apart here.

Columns and labels:
[1] = system: patients with ocular disease (Geographic Atrophy, AMD); conditions: cited from earlier work; for benefit in trials: GA trials, systemic or IVT administered agents; for Status (clinical trial outcome): Table 1, ocular disease indication
GA patients [2] = conditions: 2 mg q4w, cited from earlier work
[3] = FDA prescribing information; cited from earlier work
C5 = C5 (Homo sapiens, UniProt P01031); conditions: report from publications; read-out: affinity for C5; cited from earlier work
Bb in aqueous humor [4] = assay: CHROMA/SPECTRI Phase 3 biomarker substudy: response to lampalizumab by aqueous humor Bb; format: in vivo, human; conditions: Month 6
Description: Patient level data for patients in the sham, q4w, and […] lampalizumab Phase 3 biomarker study, as reported by Edmonds et al (Edmonds R. et al., “Complement pathway Inhibition by Lampalizumab: Analysis of Data From Chroma and Spectri Phase III Clinical Trials.” Ophthalmol Sci. 2023; 3 (3): 100286. Published 2023 Feb. 13), in Supplemental FIG. 6 of Bb (ng/mL) in aqueous humor was measured and converted into numerical data points. To verify accuracy of the plotted data points, mean and standard deviation was calculated using the plotted data and compared to the reported mean and standard deviation in Edmonds et al. Values were in good agreement.
(§1) In addition to the overall efficacy analyses, a biomarker sub study was conducted with about 100 patients (of which 33 from sham, q4w, q6w) with biomarker sampling at baseline and Month 6. Multiple complement factors were measured, including CFB, Bb, FD, C3, C3b/iC3b/C3d, C4, C4b/C4c. Results were described in Edmonds et al. Individual data points for the measured ocular proteins were reported in figures (Edmonds at FIG. 4 and Supplemental FIGS. 4-10) in addition to cohort level metrics (baseline and efficacy at 6 months).
In Edmonds, the ratio of Bb/CFB was used to assess complement activity and concluded that dosing with higher concentrations or more frequent dosing would not result in greater inhibitor of the complement pathway as there is no meaningful correlation between Bb: CFB ratio and percent change in aqueous humor from baseline to week 24.
To reassess the data & results described in Edmonds according to the categorization described herein, the data points for Bb at baseline and Month 6 in Supplemental FIG. 6 were converted into numerical values based on measurement relative to the axes and categorized as follows:
• 1. […] Ineffective lampalizumab administration-Hyper baseline, hyper at Month 6 and <50% reduction in Bb at Month 6 from baseline Bb • 3.

[5] = system: patients with geographic atrophy; assay: CHROMA + SPECTRI Phase 3 trials: change in GA area from baseline; format: in vivo, human
Description: The CHROMA & SPECTRI Phase 3 trials evaluated lampalizumab (anti-fD fab) intravitreally administered IVT 10 mg at q4w or q6w intervals compared to sham (untreated) controls. Both studies had identical designs, and each enrolled a total of about 900 patients (300 per cohort, lampa q4w, lampa […], etc). The trial is described in Holz et al. (Holz F G et al. “Efficacy and Safety of Lampalizumab for Geographic Atrophy Due to Age-Related Macular Degeneration: Chroma and Spectri Phase 3 Randomized Clinical Trials”. JAMA Ophthalmol. 2018; 136 (6): 666-677)
as §1
As “control” prediction methodology, the pooled progression for sham, q4w, and q6w at 12 months as reported in Edmonds of the overall Phase 3 was divided by 2 to estimate the progression of a cohort of any patients at 6 months.

Bb in aqueous humor [6] = conditions: essentially all individual patients treated, q4w and q6w (Edmonds at FIG. 4B); cited from earlier work
[7] = system: patients with geographic atrophy; conditions: cited from earlier work
[8] = system: complement component Ba in aqueous humor; assay: Real world SYFOVRE study: response category by aqueous humor Ba; format: in vivo, human
Description: (§2) Study Description: This study included GA anatomic (OCT, Specralis) & treatment administration data (treatment, injection date) and aqueous humor (AH) samples from 9 eyes of 5 patients with bilateral GA without CNV, treated with SYFOVRE® per USPI at a private retinal practice in the United States of America. The study was performed in accordance with the tenets of the Declaration of Helsinki and the Medical Research Involving Human Subjects Act (WMO) and was approved by the local Institutional Review Board. Written informed consent was obtained from all participants.
Assessment of biomarkers of AH concentration of complement component Ba. Aqueous humor sampling of the eyes was conducted by anterior chamber paracentesis using a 30-gauge needle attached to a 1-ml syringe. Samples of up to 150 μl were obtained at baseline (prior to first administration of SYFOVRE®) and after the first, second, or third administration of SYFOVRE®. Quantitative measurement of AH Ba was carried out using a direct capture immunoassay (Micro Vue; Qidel Corporation). Samples were transferred to sterile polypropylene tubes immediately after collection and stored at −80° C. until analysis was performed.
Categorization of eyes into hyper/homeo/hypo groups was performed: Hyper was ≥20 ng/mL Ba, Homeo was <20 to ≥10 ng/mL Ba, Hypo was <10 ng/mL Ba.
Categorization of response to SYFOVRE® based on biomarker criteria was performed.

[9] = system: eyes of patients with bilateral GA without CNV; assay: Real world SYFOVRE study: area of RPE loss by OCT; format: in vivo, human; conditions: post treatment (70 days)
Description: as §2
For each individual eye, assessment of GA progression between baseline and the measurement of the post treatment ocular proteomics was performed based on OCT images taken at the relevant visits (baseline and visits when AH sample taken). OCT analysis of retinal atrophy was performed using automated measurement of area of RPE loss, with a foveally centered, ETDRS matched analysis performed by RetinAI. Given variability in image centering and quality between visits, for a given eye, only those regions of the retina that had consistent OCT imaging & analysis coverage at each relevant timepoint were used to calculate change in area of retinal atrophy.

[10] = system: patients with bilateral GA; assay: FILLY Phase 2 study eye vs. fellow eye analysis; format: in vivo, human; conditions: baseline to month 12
Description: Apellis sponsored FILLY was a phase 2 trial evaluating efficacy of intravitreal pegcetacoplan complement C3 and C3b inhibitor on slowing GA progression, which included only one eye per participant in the treatment group.
A post hoc analysis of phase 2 FILLY trial data comparing study (treated monthly, treated every other month and sham-treated) and fellow (untreated) eyes in a split-person study design was performed and the results published (Fu et al, 2023, hereinafter “Fu”). This analysis included 288 eyes from 144 patients with bilateral GA from the FILLY phase 2 trial (Clinical Trials identifier: NCT02503332). Only patients with bilateral GA and without evidence of choroidal neovascularization in either eye were included. Patient study eyes were treated with sham injections or with pegcetacoplan monthly (PM) or every other month (PEOM) for 12 months. […] Fu specifically interpreted the data as showing “on an individual patient level, changes in GA area for the fellow eye exceeded those in the study eye for most patients in the pegcetacoplan treatment groups, while changes in the sham group approached randomness between study and fellow eyes.” Fu et al. (Fu D J et al., “Evaluating the Effects of C3 Inhibition on Geographic Atrophy Progression from Deep-Learning OCT Quantification: A Split-Person Study”. Ophthalmol Ther. 2023). […]

[11] = system: patients with bilateral GA; conditions: FILLY post hoc analysis (Fu), 12 months; cited from earlier work
C3 = C3 (Homo sapiens, UniProt P01024); conditions: report from publications; read-out: affinity for C3; cited from earlier work
GA patients [12] = conditions: implication of FDA approved prescribing information; cited from earlier work
[13] = in vivo; cited from earlier work

Chain of C3 (P01024 23-1663): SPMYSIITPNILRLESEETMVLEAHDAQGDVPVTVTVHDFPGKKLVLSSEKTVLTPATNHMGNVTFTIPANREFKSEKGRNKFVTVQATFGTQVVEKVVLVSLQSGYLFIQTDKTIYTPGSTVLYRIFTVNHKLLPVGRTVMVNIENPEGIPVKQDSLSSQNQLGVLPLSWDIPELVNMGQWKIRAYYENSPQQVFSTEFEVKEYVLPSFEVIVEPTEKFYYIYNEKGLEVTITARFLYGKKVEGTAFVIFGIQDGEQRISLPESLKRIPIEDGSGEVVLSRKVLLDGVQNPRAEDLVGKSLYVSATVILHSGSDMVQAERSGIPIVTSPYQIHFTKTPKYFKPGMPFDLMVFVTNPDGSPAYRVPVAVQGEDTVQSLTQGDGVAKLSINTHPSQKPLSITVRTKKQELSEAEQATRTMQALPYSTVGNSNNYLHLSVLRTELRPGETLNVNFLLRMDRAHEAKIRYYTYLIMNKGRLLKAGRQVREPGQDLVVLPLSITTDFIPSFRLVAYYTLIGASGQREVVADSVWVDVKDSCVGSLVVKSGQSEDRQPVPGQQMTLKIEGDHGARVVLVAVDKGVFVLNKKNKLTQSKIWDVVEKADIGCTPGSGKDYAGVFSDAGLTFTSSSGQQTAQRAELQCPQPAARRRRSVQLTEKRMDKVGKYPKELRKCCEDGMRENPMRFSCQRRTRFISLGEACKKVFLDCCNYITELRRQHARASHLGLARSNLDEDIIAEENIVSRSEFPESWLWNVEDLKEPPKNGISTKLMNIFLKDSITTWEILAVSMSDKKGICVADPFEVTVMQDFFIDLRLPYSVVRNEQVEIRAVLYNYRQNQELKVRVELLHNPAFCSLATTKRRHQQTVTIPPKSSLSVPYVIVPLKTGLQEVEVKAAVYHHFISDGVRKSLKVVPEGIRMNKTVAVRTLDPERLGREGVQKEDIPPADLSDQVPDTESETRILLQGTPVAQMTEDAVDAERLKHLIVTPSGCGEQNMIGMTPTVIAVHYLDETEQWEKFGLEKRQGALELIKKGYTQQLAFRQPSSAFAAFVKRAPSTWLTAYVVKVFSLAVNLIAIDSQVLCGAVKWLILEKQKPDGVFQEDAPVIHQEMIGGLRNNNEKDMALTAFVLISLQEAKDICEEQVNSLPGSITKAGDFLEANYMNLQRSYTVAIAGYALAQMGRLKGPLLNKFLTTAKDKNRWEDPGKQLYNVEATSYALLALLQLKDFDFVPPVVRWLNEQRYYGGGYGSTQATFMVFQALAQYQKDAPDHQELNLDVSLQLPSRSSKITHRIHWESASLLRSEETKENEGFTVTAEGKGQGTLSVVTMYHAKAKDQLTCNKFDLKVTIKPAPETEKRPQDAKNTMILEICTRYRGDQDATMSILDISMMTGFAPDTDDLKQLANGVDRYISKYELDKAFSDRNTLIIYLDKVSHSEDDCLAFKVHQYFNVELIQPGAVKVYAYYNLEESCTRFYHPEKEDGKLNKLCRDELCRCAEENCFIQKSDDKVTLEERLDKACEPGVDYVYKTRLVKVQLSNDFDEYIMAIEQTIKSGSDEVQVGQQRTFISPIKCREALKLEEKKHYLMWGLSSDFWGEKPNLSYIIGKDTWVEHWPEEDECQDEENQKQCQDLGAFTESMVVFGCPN
Chain of C5 (P01031 19-1676): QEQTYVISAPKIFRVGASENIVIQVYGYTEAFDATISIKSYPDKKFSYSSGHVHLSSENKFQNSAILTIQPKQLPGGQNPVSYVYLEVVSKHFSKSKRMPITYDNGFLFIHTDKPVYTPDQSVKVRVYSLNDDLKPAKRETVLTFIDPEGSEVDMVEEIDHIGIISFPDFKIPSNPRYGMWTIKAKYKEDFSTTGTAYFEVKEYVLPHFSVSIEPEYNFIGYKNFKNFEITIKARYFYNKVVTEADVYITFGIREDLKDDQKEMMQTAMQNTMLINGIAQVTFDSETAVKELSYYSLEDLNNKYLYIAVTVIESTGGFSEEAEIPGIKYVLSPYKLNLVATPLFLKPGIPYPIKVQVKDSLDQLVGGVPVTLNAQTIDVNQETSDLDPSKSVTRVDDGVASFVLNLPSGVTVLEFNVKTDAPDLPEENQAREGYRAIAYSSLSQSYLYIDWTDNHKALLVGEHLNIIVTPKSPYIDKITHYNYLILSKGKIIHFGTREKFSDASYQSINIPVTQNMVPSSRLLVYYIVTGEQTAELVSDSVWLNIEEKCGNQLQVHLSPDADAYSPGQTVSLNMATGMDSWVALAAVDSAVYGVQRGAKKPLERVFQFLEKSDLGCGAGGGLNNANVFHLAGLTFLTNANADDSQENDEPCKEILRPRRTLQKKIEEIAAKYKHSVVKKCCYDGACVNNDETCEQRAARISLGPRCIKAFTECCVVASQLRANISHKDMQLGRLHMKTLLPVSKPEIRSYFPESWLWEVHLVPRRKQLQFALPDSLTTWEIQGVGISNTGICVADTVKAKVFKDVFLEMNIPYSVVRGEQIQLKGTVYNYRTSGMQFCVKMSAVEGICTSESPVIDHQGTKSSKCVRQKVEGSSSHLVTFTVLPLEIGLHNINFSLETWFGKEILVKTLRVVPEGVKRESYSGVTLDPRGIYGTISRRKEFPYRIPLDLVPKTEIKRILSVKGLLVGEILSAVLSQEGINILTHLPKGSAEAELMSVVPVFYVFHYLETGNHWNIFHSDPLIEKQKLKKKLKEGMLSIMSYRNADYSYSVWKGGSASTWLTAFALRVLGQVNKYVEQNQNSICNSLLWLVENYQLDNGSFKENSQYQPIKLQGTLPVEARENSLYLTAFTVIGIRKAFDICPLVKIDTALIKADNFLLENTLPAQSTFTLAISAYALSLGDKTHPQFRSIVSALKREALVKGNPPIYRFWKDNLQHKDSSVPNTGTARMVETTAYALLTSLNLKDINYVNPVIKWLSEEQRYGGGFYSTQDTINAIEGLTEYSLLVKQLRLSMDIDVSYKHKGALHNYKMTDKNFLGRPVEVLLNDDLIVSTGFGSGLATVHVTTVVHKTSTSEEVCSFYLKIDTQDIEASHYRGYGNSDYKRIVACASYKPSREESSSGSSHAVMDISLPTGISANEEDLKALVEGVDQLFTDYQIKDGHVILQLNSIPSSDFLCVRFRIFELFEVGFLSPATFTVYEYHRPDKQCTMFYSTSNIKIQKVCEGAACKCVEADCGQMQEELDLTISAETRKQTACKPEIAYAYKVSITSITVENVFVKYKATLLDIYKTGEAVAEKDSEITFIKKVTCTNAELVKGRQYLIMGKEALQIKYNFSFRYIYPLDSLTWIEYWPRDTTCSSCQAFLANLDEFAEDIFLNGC

Molecule: [2H]C([2H])([2H])C(/C=C/C=C(C)/C=C/C1=C(C)CCCC1(C)C)=C\COC(C)=O [Alkeus]
- benefit in trials [1]: failed to show benefit

Molecule: CC(=O)c1nn(CC(=O)N2C[C@H](F)C[C@H]2C(=O)Nc2cccc(Br)n2)c2ccc(-c3cnc(C)nc3)cc12 [danicopan]
- benefit in trials [1]: failed to show benefit

Molecule: avacincaptad pegol [IZERVAY®]
- reduction in mean rate of GA growth vs. sham at 12 months (GA patients [2]; GATHER 1): 27.4%
- reduction in mean rate of GA growth vs. sham at 12 months (GA patients [2]; GATHER 2): 14%
- geometric mean half-life of elimination (t1/2) [3]: 288 h
- Kd (C5): ~3 nM

Molecule: lampalizumab: anti-fD fab, intravitreally administered 10 mg at q4w or q6w
- Post treatment response: Effective (number of eyes) (Bb in aqueous humor [4]; Q4w, 35 eyes, 14 hyper): 6
- Of Hyper; Effective (Bb in aqueous humor [4]; Q4w): 43%
- Post treatment response: Effective (number of eyes) (Bb in aqueous humor [4]; Q6w, 32 eyes, 10 hyper): 2
- Of Hyper; Effective (Bb in aqueous humor [4]; Q6w): 20%
- Change in GA area from baseline: (Edmonds et al) Biomarker pooled cohort at 48 w divided by 2 ([5]; Q4w): 1.08
- Change in GA area from baseline: CHROMA + SPECTRIA Pooled topline extrapolate to 24 w ([5]; Q4w): 1.027
- Change in GA area from baseline: (Edmonds et al) Biomarker pooled cohort at 48 w divided by 2 ([5]; Q6w): 1.03
- Change in GA area from baseline: CHROMA + SPECTRIA Pooled topline extrapolate to 24 w ([5]; Q6w): 1.028
- Bb/CFB in aqueous humor (Bb in aqueous humor [6]): decreases in Bb/CFB
- Change in GA area from baseline: (Edmonds et al) Biomarker pooled cohort at 48 w ([7]; Q4w): 2.16
- Change in GA area from baseline: Actual Data from (Edmonds) Biomarker pooled cohort at 24 w ([7]; Q4w): 1.0
- Change in GA area from baseline: CHROMA + SPECTRI Pooled topline at 48 weeks ([7]; Q4w): 2.054
- Change in GA area from baseline: (Edmonds et al) Biomarker pooled cohort at 48 w ([7]; Q6w): 2.06
- Change in GA area from baseline: Actual Data from (Edmonds) Biomarker pooled cohort at 24 w ([7]; Q6w): 1.04
- Change in GA area from baseline: CHROMA + SPECTRI Pooled topline at 48 weeks ([7]; Q6w): 2.055
- benefit in trials [1]: failed to show benefit
- Status (clinical trial outcome) [1]: failed to meet

Molecule: pegcetacoplan [SYFOVRE®]
- Response Category ([8]; Eye ID 001, OD, baseline category Hyper): Effective Complement Inhibition
- Response Category ([8]; Eye ID 002, OS, baseline category Hypo): Not
- Response Category ([8]; Eye ID 003, OD, baseline category Hyper): Not
- Response Category ([8]; Eye ID 004, OS, baseline category Hyper): Not
- Response Category ([8]; Eye ID 005, OD, baseline category Homeo): Not
- Response Category ([8]; Eye ID 006, OS, baseline category Homeo): Not
- Response Category ([8]; Eye ID 007, OD, baseline category Hypo): Not
- Response Category ([8]; Eye ID 008, OS, baseline category Hypo): Not
- Response Category ([8]; Eye ID 009, OD, baseline category Hypo): Not
- RPE depletion area post treatment ([9]; Eye ID 001, OD, hyper baseline, effective complement inhibition, baseline 6.57 mm^2): 6.45 mm^2
- RPE depletion area post treatment ([9]; Eye ID 002, OS, hypo baseline, baseline 5.8 mm^2): 6.75 mm^2
- >=50% slowing study vs. fellow, % ([10]; PEOM (every other month), 35 eyes): 20%
- >=50% slowing study vs. fellow, % ([10]; PM (monthly), 36 eyes): 53%
- spatial GA progression compared to untreated fellow eyes [11]: reduction in spatial GA progression
- Kd (C3): 15 nM
- expected average efficacy, slowing for all indicated GA patients (GA patients [12]): 20%
- geometric mean half-life of elimination (t1/2) [13]: 108 h

B1: Tesidolumab: an antibody vs. C5 (antibody, chains of the INN, looked up, V domains shown)
VH: EVQLVQSGAEVKKPGSSVKVSCKASGGTFSSYAISWVRQAPGQGLEWMGGIGPFFGTANYAQKFQGRVTITADESTSTAYMELSSLRSEDTAVYYCARDTPYFDYWGQGTLVTVSS
VL: SYELTQPLSVSVALGQTARITCSGDSIPNYYVYWYQQKPGQAPVLVIYDDSNRPSGIPERFSGSNSGNTATLTISRAQAGDEADYYCQSFDSSLNAEVFGGGTKLTVL
- Status (clinical trial outcome) [1]: Phase II failed
